From ChEMBL document CHEMBL1201862, “PubChem BioAssay data set” (2004)
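In this assay, cells in 96-well plates receive the compound at five concentrations for 48 hours. Endpoints are linearly interpolated between the surrounding concentrations. At the GI50, growth is halved.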 The source made the active and inactive calls. Cut-off read from the data, not from the text of the source: active = GI50 up to about 1.1 µM and inactive = higher.

What was measured:
Assay in all cases: NCI anticancer screen, dose series, 48 h
ACHN = tested on: ACHN
SN12C = tested on: SN12C
SF-539 = tested on: SF-539
SK-MEL-5 = tested on: SK-MEL-5
COLO 205 = tested on: COLO 205
OVCAR-3 = tested on: OVCAR-3
DMS-114 = tested on: DMS-114
EKVX = tested on: EKVX
SNB-19 = tested on: SNB-19
UO-31 = tested on: UO-31
SK-MEL-2 = tested on: SK-MEL-2
NCI-H460 = tested on: NCI-H460
RPMI-8226 = tested on: RPMI-8226
HCT-116 = tested on: HCT-116
SK-OV-3 = tested on: SK-OV-3
MCF7 = tested on: MCF7
MDA-MB-435 = tested on: MDA-MB-435
LOX IMVI = tested on: LOX IMVI
SR = tested on: SR
Hs-578T = tested on: Hs-578T

Measured: GI50

Cn1c(=O)nc2n(-c3ccc(F)cc3)c3ccccc3nc-2c1=O
inactive: ACHN 13.9 µM | SN12C 20.5 µM | SF-539 21.3 µM | SK-MEL-5 12.6 µM | COLO 205 6.84 µM | OVCAR-3 3.13 µM | DMS-114 12.8 µM | EKVX 16.4 µM | SNB-19 13.9 µM | UO-31 38.4 µM | SK-MEL-2 19 µM | NCI-H460 18.2 µM | RPMI-8226 25.2 µM | HCT-116 17.5 µM | SK-OV-3 > 100 µM

COc1cc(/C=C/C(=N\NC(N)=S)c2sc(NNC(C)=O)nc2C)ccc1O
inactive: MCF7 > 100 µM | ACHN > 100 µM | SN12C > 100 µM | SF-539 > 100 µM | SK-MEL-5 > 100 µM | COLO 205 > 100 µM | OVCAR-3 > 100 µM | MDA-MB-435 > 100 µM | LOX IMVI > 100 µM | EKVX > 100 µM | SNB-19 > 100 µM | UO-31 > 100 µM | SK-MEL-2 > 100 µM | NCI-H460 > 100 µM | RPMI-8226 > 100 µM | SR > 100 µM | HCT-116 > 100 µM | SK-OV-3 > 100 µM | Hs-578T > 100 µM

CN1CCC2(CC1)C(=O)N(N1CCCCCC1)C(=O)N2c1ccccc1
inactive: MCF7 > 100 µM | ACHN > 100 µM | SN12C > 100 µM | SF-539 > 100 µM | SK-MEL-5 > 100 µM | COLO 205 > 100 µM | OVCAR-3 > 100 µM | MDA-MB-435 > 100 µM | LOX IMVI > 100 µM | EKVX > 100 µM | SNB-19 > 100 µM | UO-31 > 100 µM | SK-MEL-2 > 100 µM | NCI-H460 > 100 µM | RPMI-8226 > 100 µM | SR > 100 µM | HCT-116 18.2 µM | SK-OV-3 > 100 µM | Hs-578T 42.2 µM

Fc1ccc(C(OCCN2CC3CC2CN3)c2ccc(F)cc2)cc1 (centres undefined)
inactive: MCF7 33.7 µM | ACHN > 100 µM | SF-539 29.6 µM | SK-MEL-5 16.4 µM | COLO 205 18.2 µM | OVCAR-3 > 100 µM | MDA-MB-435 23.1 µM | LOX IMVI 50.9 µM | SK-MEL-2 19.1 µM | NCI-H460 38.9 µM | RPMI-8226 26.1 µM | SR 27.5 µM | SK-OV-3 > 100 µM | Hs-578T 57.3 µM

N=c1c2ccccc2nc2oc3cc([N+](=O)[O-])ccc3n12
inactive: MCF7 > 100 µM | ACHN 23.7 µM | SN12C 35.6 µM | SF-539 22.3 µM | SK-MEL-5 71.6 µM | COLO 205 > 100 µM | OVCAR-3 25.7 µM | MDA-MB-435 > 100 µM | LOX IMVI 21 µM | EKVX 2.21 µM | SNB-19 24.9 µM | UO-31 16.6 µM | SK-MEL-2 94.2 µM | NCI-H460 36.9 µM | RPMI-8226 > 100 µM | SR > 100 µM | HCT-116 25.6 µM | SK-OV-3 17.9 µM | Hs-578T 4.23 µM

O=C(/C=C/c1ccc2c(c1)OCO2)NCCc1ccco1
inactive: MCF7 49.4 µM | ACHN 53 µM | SN12C > 100 µM | SF-539 > 100 µM | SK-MEL-5 23.7 µM | COLO 205 > 100 µM | OVCAR-3 34.4 µM | MDA-MB-435 64.7 µM | LOX IMVI 78.5 µM | EKVX 73.3 µM | SNB-19 > 100 µM | UO-31 41 µM | SK-MEL-2 > 100 µM | NCI-H460 69.8 µM | RPMI-8226 21.8 µM | SR 18.5 µM | HCT-116 68.9 µM | SK-OV-3 > 100 µM | Hs-578T 65.3 µM

O=c1c(-c2ccccc2)c(SCCCN2CCN(c3cccc(Cl)c3)CC2)n(-c2ccccc2)c(=S)n1-c1ccccc1
inactive: MCF7 > 100 µM | ACHN > 100 µM | SF-539 > 100 µM | SK-MEL-5 > 100 µM | COLO 205 > 100 µM | OVCAR-3 > 100 µM | MDA-MB-435 16.8 µM | LOX IMVI > 100 µM | EKVX > 100 µM | SK-MEL-2 > 100 µM | NCI-H460 > 100 µM | RPMI-8226 > 100 µM | SR 29 µM | SK-OV-3 > 100 µM | Hs-578T > 100 µM

O=C(O)CC(Cc1ccc2c(c1)OCO2)C(=O)O (centres undefined)
inactive: MCF7 > 100 µM | ACHN > 100 µM | SN12C > 100 µM | SF-539 > 100 µM | SK-MEL-5 > 100 µM | COLO 205 > 100 µM | OVCAR-3 > 100 µM | MDA-MB-435 > 100 µM | LOX IMVI > 100 µM | EKVX > 100 µM | SNB-19 > 100 µM | UO-31 > 100 µM | SK-MEL-2 > 100 µM | NCI-H460 > 100 µM | RPMI-8226 > 100 µM | SR > 100 µM | HCT-116 > 100 µM | SK-OV-3 > 100 µM | Hs-578T > 100 µM
